Entries after “also recorded” stand apart in the source; their conditions may differ. Each block holds one molecule with its values, some of them ahead of it.
Legend:
[1] = molecular target: T1, KasH (Streptomyces kasugaensis, UniProt A0A0K1H2T0); experiment: HPLC acetylation assay with KasH and AcCoA; assay type: biochemical; conditions: 1 mM substrate, 0.5 mM AcCoA, 37 °C, 12 h
[2] = molecular target: T1, KasH; experiment: ITC of KasH versus ligands;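 further: isothermal titration calorimetry at 25 °C, 0.1 mM KasH in the cell titrated with 1 mM ligand over 18 injections, data fit with a one-site binding model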
Description: (§3) ITC analyses were carried out at 25 °C using an ITC200 microcalorimeter (MicroCal Inc., Northampton, MA, USA). […] The titration experiment contains 18 injections (2 μL for a duration of 4 s) and each injection was separated by 120 s. The distilled water was filled in the reference cell throughout all titrations. The cell stirring speed was 1000 rpm. The collected raw data were processed in Origin 7.0 (provided by MicroCal) by a non-linear least square method to a single-site binding model.

[3] = test system: E. coli BL21 (DE3) cells with/without the kasH or kasF gene; experiment: Disc diffusion assay (resistance assay); assay type: cell-based
Description: KSM susceptibility and production were confirmed by disc diffusion assay. An E. coli culture was grown at 37 °C overnight and spread on an LB agar plate (pH 7.0). About 5 µL of extracted samples from Streptomyces lividans TK64 (from days 2–5) were loaded onto the paper disc. The disc was placed onto the surface of an LB agar plate and incubated at 37 °C overnight to visualize the zone of inhibition (ZOI).
For the KSM resistant assay, BL21 cells with/without the kasH or kasF gene were individually expressed and seeded on LB agar plates (pH 7.0). About 5 µL of different aminoglycoside antibiotics (amikacin, gentamicin, sisomicin, streptothricin-F, or tobramycin) were loaded onto each paper disc and placed on the surface of the LB plates. The plates were incubated 37 °C overnight to visualize the appearance of the zone of inhibition (ZOI). Note: this is a standard protocol for evaluating the effectiveness of common antibiotics, including aminoglycosides; there is no apparent impact concerning the structural integrity or biological deterioration of the selected aminoglycosides at pH 7.0 during the examining course.

[4] = test system: KasF; experiment: HPLC acetylation assay with KasF and AcCoA; assay type: biochemical, Streptomyces kasugaensis; conditions: 1 mM substrate, 0.5 mM AcCoA, 37 °C, 12 h
[5] = molecular target: KasQ E308A (Streptomyces kasugaensis, UniProt A0A0K1H2R6, E308A); experiment: biochemical; assay type: binding; conditions: ITC; KasQ mutant E308A
Sequence of KasQ E308A (A0A0K1H2R6 entry or part of it E308A): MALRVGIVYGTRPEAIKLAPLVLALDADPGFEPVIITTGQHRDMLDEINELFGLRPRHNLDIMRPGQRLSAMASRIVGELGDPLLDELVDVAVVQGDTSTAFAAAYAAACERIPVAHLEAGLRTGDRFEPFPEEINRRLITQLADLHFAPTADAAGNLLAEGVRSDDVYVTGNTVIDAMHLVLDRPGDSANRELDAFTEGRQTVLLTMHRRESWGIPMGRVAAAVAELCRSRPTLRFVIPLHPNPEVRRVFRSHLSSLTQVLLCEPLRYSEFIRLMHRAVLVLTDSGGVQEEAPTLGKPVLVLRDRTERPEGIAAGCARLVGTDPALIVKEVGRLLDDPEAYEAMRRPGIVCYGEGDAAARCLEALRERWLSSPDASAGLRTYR
Description: (§1) Site-directed mutagenesis was performed using QuikChange (Stratagene), following the manufacturer’s protocol. The wild-type KasQ plasmid (BCRC12349) was used as the template for the single mutation. All mutations were confirmed by DNA sequencing. KasQ mutants were expressed and purified with the same protocol as used for the wild-type protein.
(§2) The cell stirring speed was 1000 rpm.

[6] = molecular target: KasQ Q95E (Streptomyces kasugaensis, UniProt A0A0K1H2R6, Q95E); experiment: biochemical; assay type: binding
Sequence of KasQ Q95E (A0A0K1H2R6 entry or part of it Q95E): as the sequence (A0A0K1H2R6 entry or part of it E308A) above, with Q95E counted along it
Description: as §1, §2

[7] = molecular target: KasQ Q95A (Streptomyces kasugaensis, UniProt A0A0K1H2R6, Q95A); experiment: biochemical; assay type: binding
Sequence of KasQ Q95A (A0A0K1H2R6 entry or part of it Q95A): as the sequence (A0A0K1H2R6 entry or part of it E308A) above, with Q95A counted along it
Description: as §1, §2

[8] = molecular target: T2, KasQ (Streptomyces kasugaensis, UniProt A0A0K1H2R6); experiment: Isothermal titration calorimetry (ITC) of KasQ wild type versus substrates; assay type: binding; conditions: ITC, KasQ wild type; for Kd: 25 °C, 50 mM HEPES pH 8.0, 100 mM NaCl;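 on all read-outs here: titration of 1 mM substrate into 0.1 mM KasQ, 18 injections spaced 120 s, data fitted to a single-site binding model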
T2 sequence (A0A0K1H2R6 entry or part of it): as the sequence (A0A0K1H2R6 entry or part of it E308A) above
Description: as §3

[9] = molecular target: KasQ E308Q (Streptomyces kasugaensis, UniProt A0A0K1H2R6, E308Q); assay type: binding; conditions: ITC; KasQ mutant E308Q
Sequence of KasQ E308Q (A0A0K1H2R6 entry or part of it E308Q): as the sequence (A0A0K1H2R6 entry or part of it E308A) above
Description: as §1, §2

[10] = molecular target: T2, KasQ; experiment: HPLC kinetic analysis of KasQ epimerization; assay type: biochemical; conditions: KasQ_WT with UDP-GlcNAc and 1 mM MgCl2, 25 mM Tris pH 8.0, 37 °C
Description: The reaction mixture was mixed by vortex and incubated at 37 °C. Reactions were stopped at six different time points (10, 30, 60, 120, 180, and 240 min) by adding equal volumes of chloroform. Precipitation was removed by centrifugation and analyzed by HPLC-LTQ-MS using HPLC method B as described above. […] The Michaelis–Menten curve of the KasQ activity was derived from the integrated peak area of each reaction.

[11] = molecular target: KasQ (Streptomyces kasugaensis); experiment: not stated; oligomeric state of the purified protein in solution (Figure S3: protein overexpression and purification); the method is not named in the text shown
[12] = molecular target: the molecule itself; experiment: as above
[13] = E. coli BL21 with/without the kasH or kasF gene, all conditions

Molecule: C[C@H]1O[C@H](O[C@H]2[C@H](O)[C@@H](O)[C@@H](O)[C@H](O)[C@@H]2O)[C@@H](N)C[C@@H]1NC(=N)C(=O)O [KSM, Kasugamycin]
acetylation by KasH [1]: completely acetylated
n ([2]; ITC binding stoichiometry, KasH, 50 mM MOPS pH 7.5, 100 mM NaCl): 1.0 ± 0.1
∆G ([2]; ITC, KasH): -5.804 ± 0.4705 kcal/mol
∆H ([2]; ITC, KasH): -2.316 ± 0.4705 kcal/mol
∆S ([2]; ITC, KasH): 11.7 cal mol-1 K-1
Kd ([2]; ITC, KasH, 50 mM MOPS pH 7.5, 100 mM NaCl): 56.1 µM
binding affinity versus KasH relative to AcCoA ([2]; ITC, higher than AcCoA): 2.9 fold
binding affinity versus KasH relative to CoA ([2]; ITC, higher than CoA): 1.7 fold
growth of E. coli in the presence of KSM ([3]; E. coli BL21 (DE3) carrying the kasF gene, disc ~5 μL of 7.6 mg/mL KSM): moderate growth
growth of E. coli in the presence of KSM ([3]; E. coli BL21 (DE3) carrying the kasH gene, disc ~5 μL of 7.6 mg/mL KSM): not affected
zone of inhibition (ZOI) ([3]; E. coli BL21 (DE3) with empty pET28a+ (no acetyltransferase gene), disc ~5 μL of 7.6 mg/mL KSM): clear zone of inhibition
acetylation by KasF [4]: partially acetylated

Molecule: CC(=O)NC1C(OP(=O)(O)OP(=O)(O)OCC2OC(n3ccc(=O)[nH]c3=O)C(O)C2O)OC(CO)C(O)C1O (stereo not shown) [UDP-GlcNAc 1, UDP-N-acetyl-glucosamine]
Kd [5]: NBD
∆G [5]: NBD
∆H [5]: NBD
∆S [5]: NBD
Kd [6]: 14.2 µM
n ([6]; ITC binding stoichiometry, KasQ mutant Q95E): 0.7 ± 0.0
∆G ([6]; ITC, KasQ mutant Q95E): -6.607 ± 0.0679 kcal/mol
∆H ([6]; ITC, KasQ mutant Q95E): -0.6141 ± 0.0679 kcal/mol
∆S ([6]; ITC, KasQ mutant Q95E): 20.1 cal mol-1 K-1
Kd [7]: 45.2 µM
n ([7]; ITC binding stoichiometry, KasQ mutant Q95A): 1.6 ± 0.1
∆G ([7]; ITC, KasQ mutant Q95A): -5.939 ± 0.1764 kcal/mol
∆H ([7]; ITC, KasQ mutant Q95A): -0.7212 ± 0.1764 kcal/mol
∆S ([7]; ITC, KasQ mutant Q95A): 17.5 cal mol-1 K-1
∆G [8]: NBD
∆H [8]: NBD
∆S [8]: NBD
Kd [8]: NBD
Kd [9]: NBD
∆G [9]: NBD
∆H [9]: NBD
∆S [9]: NBD
kcat ([10]; listed as UDP-GlcNAC): 1.33 (± 0.24) s^−1
kcat ([10]; listed as UDP-GlcNAc): 1.33 s⁻¹

Molecule: NC1C(OP(=O)(O)OP(=O)(O)OCC2OC(n3ccc(=O)[nH]c3=O)C(O)C2O)OC(CO)C(O)C1O (stereo not shown) [UDP-GlcNH2]
∆G [8]: NBD
∆H [8]: NBD
∆S [8]: NBD
Kd [8]: Neither UDP-GlcNH2 that was enzymatically synthesized using the published procedure [38] nor AMP, ADP, ATP, GMP, GDP, or GTP shows detectable binding affinity and NBD
acetylation by KasF [4]: not subject to acetylation of KasF; also recorded: could not observe the formation of UDP-GlcNAc

Molecule: NCC[C@H](O)C(=O)N[C@@H]1C[C@H](N)[C@@H](O[C@H]2O[C@H](CN)[C@@H](O)[C@H](O)[C@H]2O)[C@H](O)[C@H]1O[C@H]1O[C@H](CO)[C@@H](O)[C@H](N)[C@H]1O [amikacin]
zone of inhibition (ZOI) [3, 13]: appearance of ZOI in all conditions

Molecule: CNC(C)C1CCC(N)C(OC2C(N)CC(N)C(OC3OCC(C)(O)C(NC)C3O)C2O)O1 (stereo not shown) [gentamicin]
zone of inhibition (ZOI) [3, 13]: appearance of ZOI in all conditions

Molecule: NC[C@H]1O[C@H](O[C@H]2[C@H](O)[C@@H](O[C@H]3O[C@H](CO)[C@@H](O)[C@H](N)[C@H]3O)[C@H](N)C[C@@H]2N)[C@H](N)[C@@H](O)[C@@H]1O [kanamycin B]
zone of inhibition (ZOI) [3, 13]: appearance of ZOI in all conditions

Molecule: CN[C@@H]1[C@@H](O)[C@@H](O[C@@H]2[C@@H](O)[C@H](O[C@H]3OC(CN)=CC[C@H]3N)[C@@H](N)C[C@H]2N)OC[C@]1(C)O [sisomicin]
zone of inhibition (ZOI) [3, 13]: appearance of ZOI in all conditions

Molecule: NCCC[C@H](N)CC(=O)N[C@@H]1[C@H](O)[C@@H](OC(N)=O)[C@@H](CO)O[C@H]1NC1=N[C@@H]2C(=O)NC[C@@H](O)[C@H]2N1 [streptothricin-F]
zone of inhibition (ZOI) [3, 13]: appearance of ZOI in all conditions

Molecule: NC[C@H]1O[C@H](O[C@H]2[C@H](O)[C@@H](O[C@H]3O[C@H](CO)[C@@H](O)[C@H](N)[C@H]3O)[C@H](N)C[C@@H]2N)[C@H](N)C[C@@H]1O [tobramycin]
zone of inhibition (ZOI) [3, 13]: appearance of ZOI in all conditions

stoichiometry N [11]: 2
Molecule: KasQ (enzyme)

B1: KasH (enzyme, Streptomyces kasugaensis, UniProt A0A0K1H2T0 1-130, looked up)
chain: MTITYEWRGGFDNAALNALHADGFGPPIAQTDWRTRLERHSLGWVCAWEDGLIGFVNVVWDGGAHAFILDTVVARHCRSRGVGAALVAKAADEARAANCEWLHVDFEEHLRAFYFDACGFKETTAGLIAL
notes: KasH, acetyltransferase of the kasugamycin biosynthetic gene cluster, Streptomyces kasugaensis; gene amplified and cloned into pET28a+; also called acetyltransferase KasH; source: E. coli BL21, purified (Ni-agarose, gel filtration)
stoichiometry N [12]: 2

Source: publication PMC8869731, “KasQ an Epimerase Primes the Biosynthesis of Aminoglycoside Antibiotic Kasugamycin and KasF/H Acetyltransferases Inactivate Its Activity” (Biomedicines, 2022)
